Source: ChEMBL document CHEMBL6127049, “Discovery of the selective and nanomolar inhibitor of DPP-4 more potent than sitagliptin by structure-guided rational design” (Eur J Med Chem, 2024)
Activity calls are given as the source filed them. The rule behind the calls is not given here.

Key:
Rattus norvegicus [1] = assay: Antihyperlipidemic effect in STZ-induced type 2 diabetes male Wistar albino rat model assessed as HDL level at 0.5 mg/kg, po measured after 4 weeks (reference value: 25.54 +/- 2.62 mg/dL); type: functional
Rattus norvegicus [2] = assay: Antihyperlipidemic effect in STZ-induced type 2 diabetes male Wistar albino rat model assessed as triglyceride level at 0.5 mg/kg, po measured after 4 weeks (reference value: 190.23 +/- 4.37 mg/dL); type: functional
Rattus norvegicus [3] = assay: Antihyperlipidemic effect in STZ-induced type 2 diabetes male Wistar albino rat model assessed as LDL level at 0.5 mg/kg, po measured after 4 weeks (reference value: 184.65 +/- 4.57 mg/dL); type: functional
Rattus norvegicus [4] = assay: Antihyperlipidemic effect in STZ-induced type 2 diabetes male Wistar albino rat model assessed as total cholesterol level at 0.5 mg/kg, po measured after 4 weeks (reference value: 227.04 +/- 4.10 mg/dL); type: functional
Rattus norvegicus [5] = assay: Antihyperlipidemic effect in STZ-induced type 2 diabetes male Wistar albino rat model assessed as HDL level at 10 mg/kg, po measured after 4 weeks (reference value: 25.54 +/- 2.62 mg/dL); type: functional
Rattus norvegicus [6] = assay: Anti-diabetic activity in normal Wistar rat model assessed as blood glucose level at 20 mg/kg, po followed by treated administered 3 mg/kg orally measured after 120 mins by Oral glucose tolerance test (reference value: 126.5 + /- 3.90 mg/dL); type: functional; conditions: 2 h
Rattus norvegicus [7] = assay: Antihyperlipidemic effect in STZ-induced type 2 diabetes male Wistar albino rat model assessed as total cholesterol level at 20 mg/kg, po measured after 4 weeks (reference value: 227.04 +/- 4.10 mg/dL); type: functional
[8] = Acute toxicity in Balb/C mouse assessed as morphological changes in fur at 1250 to 2000 mg/kg, po; type: organism-based; conditions: in vivo, dose 1250-2000 mg/kg
[9] = Acute toxicity in Balb/C mouse assessed as morphological changes in eyes at 1250 to 2000 mg/kg, po; type: organism-based; conditions: in vivo, dose 1250-2000 mg/kg
Rattus norvegicus [10] = assay: Antihyperlipidemic effect in STZ-induced type 2 diabetes male Wistar albino rat model assessed as HDL level at 20 mg/kg, po measured after 4 weeks (reference value: 25.54 +/- 2.62 mg/dL); type: functional
Rattus norvegicus [11] = assay: Anti-diabetic activity in normal Wistar rat model assessed as blood glucose level at 20 mg/kg, po followed by treated administered 3 mg/kg orally measured after 90 mins by Oral glucose tolerance test (reference value: 134.11 + /- 4.64 mg/dL); type: functional; conditions: 1.5 h
Rattus norvegicus [12] = assay: Reduction of alkaline phosphatase (ALP) level in STZ-induced type 2 diabetes male Wistar albino rat model at 10 mg/kg, po measured after 4 weeks by hepatic function test; type: functional, organism-based
[13] = Acute toxicity in Balb/C mouse assessed as morphological changes in nose at 1250 to 2000 mg/kg, po; type: organism-based; conditions: in vivo, dose 1250-2000 mg/kg
[14] = Acute toxicity in Balb/C mouse assessed as morphological changes in convulsions at 1250 to 2000 mg/kg, po; type: organism-based; conditions: in vivo, dose 1250-2000 mg/kg
Rattus norvegicus [15] = assay: Anti-diabetic activity in normal Wistar rat model assessed as blood glucose level at 10 mg/kg, po followed by treated administered 3 mg/kg orally measured after 90 mins by Oral glucose tolerance test (reference value: 134.11 + /- 4.64 mg/dL); type: functional; conditions: 1.5 h
[16] = Acute toxicity in Balb/C mouse assessed as changes in general appearance at 1250 to 2000 mg/kg, po; type: organism-based; conditions: in vivo, dose 1250-2000 mg/kg
Rattus norvegicus [17] = assay: Anti-diabetic activity in normal Wistar rat model assessed as blood glucose level at 10 mg/kg, po followed by treated administered 3 mg/kg orally measured immediately after administration by Oral glucose tolerance test (reference value: 105.12 mg/dL); type: functional
Dipeptidyl peptidase 4 = Dipeptidyl peptidase 4 (Homo sapiens, UniProt P27487); assay: Inhibition of DPP4 (unknown origin) assessed as hydrolysis rate using Gly-pro-p-nitroanilide as substrate measured after 20 mins incubation by fluorometric assay
Sequence of Dipeptidyl peptidase 4 (P27487 whole entry): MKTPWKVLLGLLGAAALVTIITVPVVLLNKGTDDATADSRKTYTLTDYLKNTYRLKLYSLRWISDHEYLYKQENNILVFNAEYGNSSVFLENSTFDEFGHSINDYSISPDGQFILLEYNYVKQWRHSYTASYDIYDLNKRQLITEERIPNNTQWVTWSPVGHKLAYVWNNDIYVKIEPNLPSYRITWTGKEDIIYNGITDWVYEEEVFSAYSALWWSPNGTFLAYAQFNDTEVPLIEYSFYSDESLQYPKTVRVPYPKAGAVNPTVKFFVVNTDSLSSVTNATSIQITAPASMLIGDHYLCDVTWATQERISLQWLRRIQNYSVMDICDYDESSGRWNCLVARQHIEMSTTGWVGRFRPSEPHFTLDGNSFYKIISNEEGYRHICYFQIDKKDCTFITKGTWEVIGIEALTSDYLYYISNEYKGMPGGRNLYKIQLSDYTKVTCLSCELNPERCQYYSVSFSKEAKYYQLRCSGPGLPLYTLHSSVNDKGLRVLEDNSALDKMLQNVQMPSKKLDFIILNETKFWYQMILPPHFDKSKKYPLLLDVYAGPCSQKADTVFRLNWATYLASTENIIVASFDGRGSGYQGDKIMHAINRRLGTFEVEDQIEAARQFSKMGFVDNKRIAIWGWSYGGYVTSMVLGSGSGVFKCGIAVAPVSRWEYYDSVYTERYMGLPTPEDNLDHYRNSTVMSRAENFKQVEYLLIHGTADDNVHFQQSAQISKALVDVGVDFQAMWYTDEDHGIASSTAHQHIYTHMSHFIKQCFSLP

Dipeptidyl peptidase 8 = Dipeptidyl peptidase 8 (Homo sapiens, UniProt Q6V1X1); assay: Inhibition of DPP8 (unknown origin) assessed as hydrolysis rate using Gly-pro-p-nitroanilide as substrate measured after 20 mins incubation by […] assay
Sequence of Dipeptidyl peptidase 8 (Q6V1X1 whole entry): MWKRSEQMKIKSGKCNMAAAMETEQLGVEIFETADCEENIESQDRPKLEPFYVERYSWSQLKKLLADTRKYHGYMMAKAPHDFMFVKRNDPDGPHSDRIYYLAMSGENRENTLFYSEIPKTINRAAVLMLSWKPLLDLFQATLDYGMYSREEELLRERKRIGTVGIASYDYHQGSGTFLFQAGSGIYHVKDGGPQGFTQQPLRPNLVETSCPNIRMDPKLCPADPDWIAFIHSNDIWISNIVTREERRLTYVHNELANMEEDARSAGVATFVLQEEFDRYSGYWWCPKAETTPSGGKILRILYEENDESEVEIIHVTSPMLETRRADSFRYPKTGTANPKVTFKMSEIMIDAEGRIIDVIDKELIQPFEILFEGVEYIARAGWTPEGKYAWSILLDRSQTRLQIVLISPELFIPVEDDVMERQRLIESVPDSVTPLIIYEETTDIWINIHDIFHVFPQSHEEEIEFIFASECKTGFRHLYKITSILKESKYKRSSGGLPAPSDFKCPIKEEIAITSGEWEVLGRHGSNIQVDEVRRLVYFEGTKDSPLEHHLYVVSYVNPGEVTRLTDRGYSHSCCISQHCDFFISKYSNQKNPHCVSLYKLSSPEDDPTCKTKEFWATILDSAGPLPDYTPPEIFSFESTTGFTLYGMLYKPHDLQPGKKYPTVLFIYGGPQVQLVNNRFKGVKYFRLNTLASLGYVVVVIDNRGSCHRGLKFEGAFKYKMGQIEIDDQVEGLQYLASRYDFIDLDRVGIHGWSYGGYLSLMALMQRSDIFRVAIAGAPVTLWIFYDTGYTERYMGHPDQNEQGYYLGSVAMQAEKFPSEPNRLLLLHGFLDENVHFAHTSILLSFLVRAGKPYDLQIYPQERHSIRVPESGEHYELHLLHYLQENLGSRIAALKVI

Rattus norvegicus [18] = assay: Reduction of alkaline phosphatase (ALP) level in STZ-induced type 2 diabetes male Wistar albino rat model at 20 mg/kg, po measured after 4 weeks by hepatic function test; type: functional, organism-based
Rattus norvegicus [19] = assay: Reduction of serum glutamate pyruvate transaminase (SGPT) level in STZ-induced type 2 diabetes male Wistar albino rat model at 10 mg/kg, po measured after 4 weeks by hepatic function test; type: functional, organism-based
Rattus norvegicus [20] = assay: Antihyperlipidemic effect in STZ-induced type 2 diabetes male Wistar albino rat model assessed as triglyceride level at 10 mg/kg, po measured after 4 weeks (reference value: 190.23 +/- 4.37 mg/dL); type: functional
Rattus norvegicus [21] = assay: Reduction of serum glutamate oxaloacetate transaminase (SGOT) level in STZ-induced type 2 diabetes male Wistar albino rat model at 20 mg/kg, po measured after 4 weeks by hepatic function test; type: functional, organism-based
Rattus norvegicus [22] = assay: Anti-diabetic activity in normal Wistar rat model assessed as blood glucose level at 20 mg/kg, po followed by treated administered 3 mg/kg orally measured immediately after administration by Oral glucose tolerance test (reference value: 105.12 mg/dL); type: functional
Rattus norvegicus [23] = assay: Anti-diabetic activity in normal Wistar rat model assessed as blood glucose level at 10 mg/kg, po followed by treated administered 3 mg/kg orally measured after 30 mins by Oral glucose tolerance test (reference value: […] 176.14 + /- 4.04 mg/dL); type: functional; conditions: 0.5 h
Rattus norvegicus [24] = assay: Anti-diabetic activity in normal Wistar rat model assessed as blood glucose level at 20 mg/kg, po followed by treated administered 3 mg/kg orally measured after 60 mins by Oral glucose tolerance test (reference value: 153.74 + /- 3.94 mg/dL); type: functional; conditions: 1 h
Rattus norvegicus [25] = assay: Antihyperlipidemic effect in STZ-induced type 2 diabetes male Wistar albino rat model assessed as LDL level at 20 mg/kg, po measured after 4 weeks (reference value: 184.65 +/- 4.57 mg/dL); type: functional
Rattus norvegicus [26] = assay: Antihyperlipidemic effect in STZ-induced type 2 diabetes male Wistar albino rat model assessed as total cholesterol level at 10 mg/kg, po measured after 4 weeks (reference value: 227.04 +/- 4.10 mg/dL); type: functional
[27] = Acute toxicity in Balb/C mouse assessed as morphological changes in tremors at 1250 to 2000 mg/kg, po; type: organism-based; conditions: in vivo, dose 1250-2000 mg/kg
Dipeptidyl peptidase 9 = Dipeptidyl peptidase 9 (Homo sapiens, UniProt Q86TI2); assay: Inhibition of DPP9 (unknown origin) assessed as hydrolysis rate using Gly-pro-p-nitroanilide as substrate measured after 20 mins incubation by […] assay
Sequence of Dipeptidyl peptidase 9 (Q86TI2 whole entry): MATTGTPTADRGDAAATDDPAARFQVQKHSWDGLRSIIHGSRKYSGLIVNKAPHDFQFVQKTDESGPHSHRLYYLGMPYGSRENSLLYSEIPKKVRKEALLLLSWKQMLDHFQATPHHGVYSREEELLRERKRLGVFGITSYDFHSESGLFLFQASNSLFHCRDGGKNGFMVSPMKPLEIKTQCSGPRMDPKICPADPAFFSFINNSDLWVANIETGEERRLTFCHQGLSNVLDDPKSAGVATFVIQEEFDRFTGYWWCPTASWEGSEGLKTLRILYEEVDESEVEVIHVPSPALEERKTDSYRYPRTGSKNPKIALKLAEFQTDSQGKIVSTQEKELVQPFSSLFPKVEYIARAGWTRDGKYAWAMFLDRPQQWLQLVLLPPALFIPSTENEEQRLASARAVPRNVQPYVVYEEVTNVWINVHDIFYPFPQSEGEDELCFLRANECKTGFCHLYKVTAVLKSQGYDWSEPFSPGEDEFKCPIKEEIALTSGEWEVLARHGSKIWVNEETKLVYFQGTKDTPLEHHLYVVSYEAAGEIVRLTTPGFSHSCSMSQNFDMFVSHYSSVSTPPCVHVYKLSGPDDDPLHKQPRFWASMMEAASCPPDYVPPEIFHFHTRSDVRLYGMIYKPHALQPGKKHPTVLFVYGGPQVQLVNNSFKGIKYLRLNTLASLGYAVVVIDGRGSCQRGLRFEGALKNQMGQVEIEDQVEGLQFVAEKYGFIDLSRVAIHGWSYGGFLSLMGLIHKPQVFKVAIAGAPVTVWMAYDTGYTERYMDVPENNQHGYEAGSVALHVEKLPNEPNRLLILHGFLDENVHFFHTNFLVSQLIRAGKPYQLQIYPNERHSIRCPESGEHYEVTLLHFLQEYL

Rattus norvegicus [28] = organism: Rattus norvegicus; assay: Anti-diabetic activity in STZ-induced type 2 diabetes male Wistar albino rat model assessed as fasting blood glucose level measured on day 28; type: functional
[29] = Acute toxicity in Balb/C mouse assessed as morphological changes in diarrhea at 1250 to 2000 mg/kg, po; type: organism-based; conditions: in vivo, dose 1250-2000 mg/kg
[30] = Acute toxicity in Balb/C mouse assessed as morphological changes in salvation at 1250 to 2000 mg/kg, po; type: organism-based; conditions: in vivo, dose 1250-2000 mg/kg
Rattus norvegicus [31] = assay: Antihyperlipidemic effect in STZ-induced type 2 diabetes male Wistar albino rat model assessed as triglyceride level at 20 mg/kg, po measured after 4 weeks (reference value: 190.23 +/- 4.37 mg/dL); type: functional
Rattus norvegicus [32] = assay: Anti-diabetic activity in normal Wistar rat model assessed as blood glucose level at 10 mg/kg, po followed by treated administered 3 mg/kg orally measured after 60 mins by Oral glucose tolerance test (reference value: 153.74 + /- 3.94 mg/dL); type: functional; conditions: 1 h
Rattus norvegicus [33] = assay: Anti-diabetic activity in normal Wistar rat model assessed as blood glucose level at 20 mg/kg, po followed by treated administered 3 mg/kg orally measured after 30 mins by Oral glucose tolerance test (reference value: 176.14 + /- 4.04 mg/dL); type: functional; conditions: 0.5 h
[34] = Acute toxicity in Balb/C mouse assessed as morphological changes in skin at 1250 to 2000 mg/kg, po; type: organism-based; conditions: in vivo, dose 1250-2000 mg/kg
Rattus norvegicus [35] = assay: Reduction of serum glutamate oxaloacetate transaminase (SGOT) level in STZ-induced type 2 diabetes male Wistar albino rat model at 10 mg/kg, po measured after 4 weeks by hepatic function test; type: functional, organism-based
Rattus norvegicus [36] = organism: Rattus norvegicus; assay: Anti-diabetic activity in STZ-induced type 2 diabetes male Wistar albino rat model assessed as fasting blood glucose level measured on day 1; type: functional
[37] = Acute toxicity in Balb/C mouse assessed as morphological changes in unusual behavior at 1250 to 2000 mg/kg, po; type: organism-based; conditions: in vivo, dose 1250-2000 mg/kg
Rattus norvegicus [38] = assay: Anti-diabetic activity in normal Wistar rat model assessed as blood glucose level at 10 mg/kg, po followed by treated administered 3 mg/kg orally measured after 120 mins by Oral glucose tolerance test (reference value: 126.5 + /- 3.90 mg/dL); type: functional; conditions: 2 h
Rattus norvegicus [39] = assay: Antihyperlipidemic effect in STZ-induced type 2 diabetes male Wistar albino rat model assessed as LDL level at 10 mg/kg, po measured after 4 weeks (reference value: 184.65 +/- 4.57 mg/dL); type: functional
Rattus norvegicus [40] = assay: Reduction of serum glutamate pyruvate transaminase (SGPT) level in STZ-induced type 2 diabetes male Wistar albino rat model at 20 mg/kg, po measured after 4 weeks by hepatic function test; type: functional, organism-based
Rattus norvegicus [41] = assay: Reduction of serum creatinine level in STZ-induced type 2 diabetes male Wistar albino rat model at 10 mg/kg, po measured after 4 weeks by hepatic function test; type: functional, organism-based
Rattus norvegicus [42] = assay: Reduction of serum creatinine level in STZ-induced type 2 diabetes male Wistar albino rat model at 20 mg/kg, po measured after 4 weeks by hepatic function test; type: functional, organism-based

Structure (SMILES)	Activity (Rattus norvegicus [5])	Activity (Rattus norvegicus [6])	Activity (Rattus norvegicus [7])	Activity (Rattus norvegicus [10])	Activity (Rattus norvegicus [11])	Activity (Rattus norvegicus [12])	Activity (Rattus norvegicus [15])	Activity (Rattus norvegicus [17])	IC50 (Dipeptidyl peptidase 4)	Activity (Rattus norvegicus [18])	Activity (Rattus norvegicus [19])	Activity (Rattus norvegicus [20])	Activity (Rattus norvegicus [21])	Activity (Rattus norvegicus [22])	Activity (Rattus norvegicus [23])	Activity (Rattus norvegicus [24])	Activity (Rattus norvegicus [25])	Activity (Rattus norvegicus [26])	Activity (Rattus norvegicus [31])	Activity (Rattus norvegicus [32])	other results
COc1ccc(Cl)cc1C(=O)NCCc1ccc(S(=O)(=O)NC(=O)NC2CCCCC2)cc1 [GLYBURIDE]	–	–	–	–	–	–	–	–	–	–	–	–	–	–	–	–	–	–	–	–	Activity (Rattus norvegicus [1]): 66.6 mg/dL; Activity (Rattus norvegicus [2]): 106.87 mg/dL; Activity (Rattus norvegicus [3]): 97.55 mg/dL; Activity (Rattus norvegicus [4]): 123.65 mg/dL
CC1=C(C(=O)O)C(c2ccc(F)c(F)c2)N=C(N)N1C(=O)CN1Cc2cn(S(C)(=O)=O)nc2C1 (stereo not given)	45.9 mg/dL	109.75 mg/dL	138.76 mg/dL	53.56 mg/dL	116.56 mg/dL	Active	110.22 mg/dL	103.52 mg/dL	0.002 µM	Active	Active	146.34 mg/dL	Active	100.83 mg/dL	119.65 mg/dL	114.26 mg/dL	114.67 mg/dL	152.34 mg/dL	117.23 mg/dL	121.54 mg/dL	Activity [8]: Non-Toxic; Activity [9]: Non-Toxic; Activity [13]: Non-Toxic; Activity [14]: Non-Toxic; Activity [16]: Non-Toxic; IC50 (Dipeptidyl peptidase 8): 3.32 µM; Activity [27]: Non-Toxic; IC50 (Dipeptidyl peptidase 9): 2.84 µM; Activity (Rattus norvegicus [28]): 141 mg/dL; Activity [29]: Non-Toxic; Activity [30]: Non-Toxic; Activity (Rattus norvegicus [33]): 116.78 mg/dL; Activity [34]: Non-Toxic; Activity (Rattus norvegicus [35]): Active; Activity (Rattus norvegicus [36]): 291 mg/dL; Activity [37]: Non-Toxic; Activity (Rattus norvegicus [38]): 108.68 mg/dL; Activity (Rattus norvegicus [39]): 131.65 mg/dL; Activity (Rattus norvegicus [40]): Active
CC1=C(C(=O)O)C(c2ccc(F)c(F)c2)N=C(N)N1C(=O)CN1CCn2c(nnc2C(F)(F)F)C1 (stereo not given)	48.67 mg/dL	107.18 mg/dL	134.27 mg/dL	59.54 mg/dL	110.82 mg/dL	Active	134.23 mg/dL	103.12 mg/dL	0.116 µM	Active	Active	141.45 mg/dL	Active	101.26 mg/dL	117.53 mg/dL	112.43 mg/dL	105.65 mg/dL	148.1 mg/dL	113.65 mg/dL	113.74 mg/dL	Activity (Rattus norvegicus [41]): Active; Activity (Rattus norvegicus [33]): 114.05 mg/dL; Activity (Rattus norvegicus [35]): Active; Activity (Rattus norvegicus [42]): Active; Activity (Rattus norvegicus [38]): 126.68 mg/dL; Activity (Rattus norvegicus [39]): 121.78 mg/dL; Activity (Rattus norvegicus [40]): Active
